From patent publication US10537565B2, “Solid forms of N-[2,4-bis(1,1-dimethylethyl)-5-hydroxyphenyl]-1,4-dihydro-4-oxoquinoline-3-carboxamide” (Vertex Pharmaceuticals Incorporated, priority 2005, dated 2020)
Converted amounts (≈) assume the structure as drawn.

Columns and labels:
[1] = Bioavailability (PK) of solid state forms of Compound 1 in rat, oral dosing compared to IV solution; settings: in vivo
Protocol: Bioavailability of crystalline Form B, 85% amorphous Compound 1 and HPMCAS solid dispersion of Compound 1 were evaluated in rat, the results of which are provided in Table 4 below. These forms of the compound were dosed in an oral suspension with a vehicle containing 0.5% methyl cellulose/0.5% SLS/99% water. Bioavailability of various solid forms was evaluated as compared to a multicomponent IV solution of Compound 1. Bioavailability of crystalline […] was 3-6%, compared to 61-95% for amorphous material and 109-111% for solid dispersion.

Solubility in FaSSIF = format: physicochemical

Row | bioavailability ([1]; po) | % F ([1]; po, 50 mg/kg) [%] | AUC ([1]; po, 50 mg/kg) [µg·h/mL] | Tmax ([1]; po, 50 mg/kg) [h] | % F ([1]; po, 200 mg/kg) [%] | AUC ([1]; po, 200 mg/kg) [µg·h/mL] | Tmax ([1]; po, 200 mg/kg) [h] | solubility (Solubility in FaSSIF; listed as 85% amorphous material) [µg/mL] | bioavailability ([1]; 50 mg/kg, % F) [%] | bioavailability ([1]; 200 mg/kg, % F) [%] | Tmax ([1]; po, 50 mg/kg, Tmax) [h] | solubility (Solubility in FaSSIF; listed as crystalline polymorph B) [µg/mL] | Structure (SMILES)
1 | 61-95% | 95.0 | 135.5 | 6.0 | 61.0 | 371.9 | 6.0 | 67.4 (≈ 172 µM) |  |  |  |  | CC(C)(C)c1cc(C(C)(C)C)c(NC(=O)c2c[nH]c3ccccc3c2=O)cc1O [85% Amorphous, N-[2,4-bis(1,1-dimethylethyl)-5-hydroxyphenyl]-1,4-dihydro-4-oxoquinoline-3-carboxamide]
2 |  | 5.5 |  | 4.0 | 3.1 |  |  |  | 74 | 67 | 5.5 | 1.0 (≈ 2.55 µM) | CC(C)(C)c1cc(C(C)(C)C)c(NC(=O)c2c[nH]c3ccccc3c2=O)cc1O [Crystalline, N-[2,4-bis(1,1-dimethylethyl)-5-hydroxyphenyl]-1,4-dihydro-4-oxoquinoline-3-carboxamide]
